Measured values as given in patent publication EP2975030B1, “DIHYDROPYRIDAZINE-3,5-DIONE DERIVATIVE” (Chugai Seiyaku Kabushiki Kaisha, priority 2013, dated 2014).

Test system: rat small-intestinal brush border membrane vesicles
Assay: Inhibitory effect on 33PO4 uptake into rat small-intestinal brush border membrane vesicles (rapid filtration method)
Assay type: biochemical, Wistar female rat
Conditions: 1 µM test compound; 33PO4 uptake into rat small-intestinal BBMVs, 60 seconds
In short: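 33PO4 uptake into rat small-intestinal brush border membrane vesicles measured by rapid filtration. Reactions were stopped with ice-cold buffer (110 mM NaCl, 1 mM KH2PO4, 10 mM HEPES pH 7.5), filtered and washed. Vesicle-associated radioactivity was counted by liquid scintillation.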

SMILES | Rate of uptake inhibition (%) (1 µM)
CN1N(Cc2cccc(F)c2F)C(=O)C(C(=O)Nc2ccc(C(F)(F)F)cc2-c2ncnc(C#N)c2Cl)=C(O)C1(C)C [Example 312] | 74
CN1N(Cc2ccc(OCCN3CCOCC3)c(F)c2F)C(=O)C(C(=O)Nc2ccc(C(F)(F)F)cc2-c2cc(C(F)(F)F)ncn2)=C(O)C1(C)C [Example 313, 2-[[2,3-Difluoro-4-(2-morpholin-4-ylethoxy)phenyl]methyl]-5-hydroxy-1,6,6-trimethyl-3-oxo-N-[4-(trifluoromethyl)-2-[6-(trifluoromethyl)pyrimidin-4-yl]phenyl]pyridazine-4-carboxamide] | 65
CN1N(Cc2ccc(OCCN3CCOCC3)c(F)c2F)C(=O)C(C(=O)Nc2ccc(C(F)(F)F)cc2-c2ccc(C(F)(F)F)nc2)=C(O)C1(C)C [Example 314, 2-[[2,3-Difluoro-4-(2-morpholin-4-ylethoxy)phenyl]methyl]-5-hydroxy-1,6,6-trimethyl-3-oxo-N-[4-(trifluoromethyl)-2-[6-(trifluoromethyl)pyridin-3-yl]phenyl]pyridazine-4-carboxamide] | 72
CN1N(Cc2ccc(C#CCN3CCOCC3)c(F)c2F)C(=O)C(C(=O)Nc2ccc(C(F)(F)F)cc2-c2cc(C(F)(F)F)ncn2)=C(O)C1(C)C [Example 315, 2-[[2,3-Difluoro-4-(3-morpholin-4-ylprop-1-ynil)phenyl]methyl]-5-hydroxy-1,6,6-trimethyl-3-oxo-N-[4-(trifluoromethyl)-2-[6-(trifluoromethyl)pyrimidin-4-yl]phenyl]pyridazine-4-carboxamide] | 63
CN1N(Cc2ccc(C#CCN3CCOCC3)c(F)c2F)C(=O)C(C(=O)Nc2ccc(Cl)cc2-c2cc(C(F)(F)F)ncn2)=C(O)C1(C)C [Example 316, N-[4-Chloro-2-[6-(trifluoromethyl)pyrimidin-4-yl]phenyl]-2-[[2,3-difluoro-4-(3-morpholin-4-ylprop-1-ynil)phenyl]methyl]-5-hydroxy-1,6,6-trimethyl-3-oxopyridazine-4-carboxamide] | 64
CN1N(Cc2ccc(OCCCC(=O)O)c(F)c2F)C(=O)C(C(=O)Nc2ccc(C(F)(F)F)cc2-c2cc(C(F)(F)F)ncn2)=C(O)C12CCCC2 [Example 332, 4-[2,3-Difluoro-4-[[10-hydroxy-6-methyl-8-oxo-9-[[4-(trifluoromethyl)-2-[6-(trifluoromethyl)pyrimidin-4-yl]phenyl]carbamoyl]-6,7-diazaspiro[4.5]dec-9-en-7-yl]methyl]phenoxy]butanoate] | 3
CN1N(Cc2ccc(OCCCCCC(=O)O)c(F)c2F)C(=O)C(C(=O)Nc2ccc(C(F)(F)F)cc2-c2cc(C(F)(F)F)ncn2)=C(O)C12CCCC2 [Example 334] | 22
CN1N(Cc2ccc(OCCCCCCC(=O)O)c(F)c2F)C(=O)C(C(=O)Nc2ccc(C(F)(F)F)cc2-c2cc(C(F)(F)F)ncn2)=C(O)C12CCCC2 [Example 335] | 30
CN1N(Cc2ccc(OCC(=O)N3CCOCC3)c(F)c2F)C(=O)C(C(=O)Nc2ccc(C(F)(F)F)cc2-c2cc(C(F)(F)F)ncn2)=C(O)C12CCC2 [Example 336, 8-[[2,3-Difluoro-4-(2-morpholin-2-oxo-ethoxy)phenyl]methyl]-5-hydroxy-9-methyl-7-oxo-N-[4-(trifluoromethyl)-2-[6-(trifluoromethyl)pyrimidin-4yl]phenyl]-8,9-diazaspiro[3.5]non-5-ene-6-carboxamide] | 44
CN1N(Cc2ccc(OCCN3CCOC(=O)C3)c(F)c2F)C(=O)C(C(=O)Nc2ccc(C(F)(F)F)cc2-c2cc(C(F)(F)F)ncn2)=C(O)C12CCC2 [Example 337, 8-[[2,3-Difluoro-4-[2-(2-oxomorpholin-4-yl)ethoxy]phenyl]methyl]1-5-hydroxy-9-methyl-7-oxo-N-[4-(trifluoromethyl)-2[6-(trifluoromethyl)pyrimidin-4-yl]phenyl]-8,9-diazaspiro[3.5]non-5-ene-6-carboxamide] | 47
CN(CCOc1ccc(CN2C(=O)C(C(=O)Nc3ccc(C(F)(F)F)cc3-c3cc(C(F)(F)F)ncn3)=C(O)C3(CCC3)N2C)c(F)c1F)C1CCOC1 (stereo not shown) [Example 338, 6-[[2,3-Difluoro-4-[2-[methyl(oxolan-3-yl)amino]ethoxy]phenyl]methyl]-9-hydroxy-5-methyl-7-oxo-N-[4-(trifluoromethyl)-2-[6-(trifluoromethyl)pyrimidin-4-yl]phenyl]-5,6-diazaspiro[3.5]non-8-ene-8-carboxamide] | 66
CN1N(Cc2ccc(OCCN3[C@@H]4COC[C@H]3C4)c(F)c2F)C(=O)C(C(=O)Nc2ccc(C(F)(F)F)cc2-c2cc(C(F)(F)F)ncn2)=C(O)C12CCC2 [Example 339] | 66
CN1N(Cc2ccc(OCCN3C4CCC3COC4)c(F)c2F)C(=O)C(C(=O)Nc2ccc(C(F)(F)F)cc2-c2cc(C(F)(F)F)ncn2)=C(O)C12CCC2 [Example 340] | 63
CN1N(Cc2ccc(OCCN3CCOCC3(C)C)c(F)c2F)C(=O)C(C(=O)Nc2ccc(C(F)(F)F)cc2-c2cc(C(F)(F)F)ncn2)=C(O)C12CCC2 [Example 341] | 64
CN1N(Cc2ccc(OCCN3CCOC(C)(C)C3)c(F)c2F)C(=O)C(C(=O)Nc2ccc(C(F)(F)F)cc2-c2cc(C(F)(F)F)ncn2)=C(O)C12CCC2 [Example 342] | 43
C[C@H]1COC[C@H](C)N1CCOc1ccc(CN2C(=O)C(C(=O)Nc3ccc(C(F)(F)F)cc3-c3cc(C(F)(F)F)ncn3)=C(O)C3(CCC3)N2C)c(F)c1F [Example 343] | 68
C[C@@H]1COC[C@H](C)N1CCOc1ccc(CN2C(=O)C(C(=O)Nc3ccc(C(F)(F)F)cc3-c3cc(C(F)(F)F)ncn3)=C(O)C3(CCC3)N2C)c(F)c1F [Example 344] | 58
COC(=O)CN(C)CCOc1ccc(CN2C(=O)C(C(=O)Nc3ccc(C(F)(F)F)cc3-c3cc(C(F)(F)F)ncn3)=C(O)C3(CCC3)N2C)c(F)c1F [Example 346] | 42
CN(CCO)CCOc1ccc(CN2C(=O)C(C(=O)Nc3ccc(C(F)(F)F)cc3-c3cc(C(F)(F)F)ncn3)=C(O)C3(CCC3)N2C)c(F)c1F [Example 347] | 28

SMILES | Rate of uptake inhibition (%) (1 µM)
COCCN(CCOC)CCOc1ccc(CN2C(=O)C(C(=O)Nc3ccc(C(F)(F)F)cc3-c3cc(C(F)(F)F)ncn3)=C(O)C3(CCC3)N2C)c(F)c1F [Example 348] | 31
COCC(C)(C)N(C)CCOc1ccc(CN2C(=O)C(C(=O)Nc3ccc(C(F)(F)F)cc3-c3cc(C(F)(F)F)ncn3)=C(O)C3(CCC3)N2C)c(F)c1F [Example 349] | 55
COC(C)(C)CN(C)CCOc1ccc(CN2C(=O)C(C(=O)Nc3ccc(C(F)(F)F)cc3-c3cc(C(F)(F)F)ncn3)=C(O)C3(CCC3)N2C)c(F)c1F [Example 350] | 45
CN1N(Cc2ccc(OCCN(CCO)CCO)c(F)c2F)C(=O)C(C(=O)Nc2ccc(C(F)(F)F)cc2-c2cc(C(F)(F)F)ncn2)=C(O)C12CCC2 [Example 351] | 22
CN1N(Cc2ccc(OCCn3cncn3)c(F)c2F)C(=O)C(C(=O)Nc2ccc(C(F)(F)F)cc2-c2cc(C(F)(F)F)ncn2)=C(O)C12CCC2 [Example 352] | 27
CC(=O)NCCN(C)CCOc1ccc(CN2C(=O)C(C(=O)Nc3ccc(C(F)(F)F)cc3-c3cc(C(F)(F)F)ncn3)=C(O)C3(CCC3)N2C)c(F)c1F [Example 353] | 26
CC(=O)N(C)CCN(C)CCOc1ccc(CN2C(=O)C(C(=O)Nc3ccc(C(F)(F)F)cc3-c3cc(C(F)(F)F)ncn3)=C(O)C3(CCC3)N2C)c(F)c1F [Example 354] | 31
COC(=O)[C@@H]1CCCN1CCOc1ccc(CN2C(=O)C(C(=O)Nc3ccc(C(F)(F)F)cc3-c3cc(C(F)(F)F)ncn3)=C(O)C3(CCC3)N2C)c(F)c1F [Example 355] | 36
COC1(C)CN(CCOc2ccc(CN3C(=O)C(C(=O)Nc4ccc(C(F)(F)F)cc4-c4cc(C(F)(F)F)ncn4)=C(O)C4(CCC4)N3C)c(F)c2F)C1 [Example 356] | 58
CSC1CN(CCOc2ccc(CN3C(=O)C(C(=O)Nc4ccc(C(F)(F)F)cc4-c4cc(C(F)(F)F)ncn4)=C(O)C4(CCC4)N3C)c(F)c2F)C1 [Example 357] | 45
CN1N(Cc2ccc(OCCN3CCC(N4CCOCC4)CC3)c(F)c2F)C(=O)C(C(=O)Nc2ccc(C(F)(F)F)cc2-c2cc(C(F)(F)F)ncn2)=C(O)C12CCC2 [Example 358] | 34
CN1CCN(CCOc2ccc(CN3C(=O)C(C(=O)Nc4ccc(C(F)(F)F)cc4-c4cc(C(F)(F)F)ncn4)=C(O)C4(CCC4)N3C)c(F)c2F)CC1=O [Example 359] | 37
CN1N(Cc2ccc(OCCN3CCN(CCO)CC3)c(F)c2F)C(=O)C(C(=O)Nc2ccc(C(F)(F)F)cc2-c2cc(C(F)(F)F)ncn2)=C(O)C12CCC2 [Example 360] | 21
CN1N(Cc2ccc(OCCN3CCN(CCOCCO)CC3)c(F)c2F)C(=O)C(C(=O)Nc2ccc(C(F)(F)F)cc2-c2cc(C(F)(F)F)ncn2)=C(O)C12CCC2 [Example 361] | 20
CN1N(Cc2ccc(OCCN3CCN(CCCO)CC3)c(F)c2F)C(=O)C(C(=O)Nc2ccc(C(F)(F)F)cc2-c2cc(C(F)(F)F)ncn2)=C(O)C12CCC2 [Example 362] | 17
CN1N(Cc2ccc(OCCN3CCN(S(C)(=O)=O)CC3)c(F)c2F)C(=O)C(C(=O)Nc2ccc(C(F)(F)F)cc2-c2cc(C(F)(F)F)ncn2)=C(O)C12CCC2 [Example 363] | 11
CN(C)C(=O)N1CCN(CCOc2ccc(CN3C(=O)C(C(=O)Nc4ccc(C(F)(F)F)cc4-c4cc(C(F)(F)F)ncn4)=C(O)C4(CCC4)N3C)c(F)c2F)CC1 [Example 364] | 36
CN(CCOc1ccc(CN2C(=O)C(C(=O)Nc3ccc(C(F)(F)F)cc3-c3cc(C(F)(F)F)ncn3)=C(O)C3(CCCC3)N2C)c(F)c1F)C1CCOCC1 [Example 365] | 34
